Literature values as cited in patent US20030104981A1 (priority 1995, published 2003).

Assays:
LB lymphoma cell = conditions: cited from earlier work
LB and IM-9 = conditions: cited from earlier work
[1] = poster presentation, 1992; cited from earlier work
[2] = assumed; cited from earlier work
IDE = IDE (Homo sapiens, UniProt P14735); conditions: cited from earlier work

Substance: A8 His B10 Glu B27 His (code name H2) insulin [Radoyka H2]
- mitogenic potency (literature) (LB lymphoma cell): most potent mitogen
- binding to LB and IM-9 (LB and IM-9): bound essentially irreversibly

Substance: B10 Asp insulin: B10 His replaced by Asp in native insulin
- mitogenic effect [1]: significantly increased mitogenic effect

Substance: des-(B26-B30)-[Glu-B^10; Tyr-B^25—NH2] insulin analogue
- activity, times more active than native insulin [2]: at least 20 times

Substance: rat insulin analogue at B16 Tyr→Asp replacement: engineered rat insulin analogue at B16 Tyr→Asp replacement (group in Geneva)
- susceptibility to cleavage by IDE (IDE): unchanged susceptibility to cleavage by IDE
